Reference: PubChem BioAssay AID328 (DTP/NCI, 2004)
Several values for one entry are separate records, joined by “and”; a condition that tells them apart may be missing. Identical values can stand only once. Toxic doses and inconclusive results are not listed. Rule for the calls: active = survival T/C of 150% or more; inactive = T/C below 125% in these data.

Test system: BDF1 mice, P388 leukemia ip, median survival T/C
Experiment: NCI In Vivo Anticancer Drug Screen. Data for tumor model P388 Leukemia (intraperitoneal) in B6D2F1 (BDF1) mice
Settings: endpoint: median survival time, higher = longer survival
Summary of the method: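 Antitumour effect was judged in vivo: survival in drug-treated mice, normalised to that of vehicle-dosed controls, gives the reported T/C.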

[1] = dose: 100.0 mg/kg/injection, schedule: Q01DX001 (ip), vehicle: saline with Tween-80
[2] = dose: 200.0 mg/kg/injection, schedule: Q01DX001 (ip), vehicle: saline with Tween-80
[3] = dose: 12.5 mg/kg/injection, schedule: Q01DX009 (ip), vehicle: saline with Tween-80
[4] = dose: 25.0 mg/kg/injection, schedule: Q01DX009 (ip), vehicle: saline with Tween-80
[5] = dose: 6.25 mg/kg/injection, schedule: Q04DX003 (ip), vehicle: saline
[6] = dose: 25.0 mg/kg/injection, schedule: Q04DX003 (ip), vehicle: saline
[7] = dose: 50.0 mg/kg/injection, schedule: Q01DX009 (ip), vehicle: saline with Tween-80
[8] = dose: 100.0 mg/kg/injection, schedule: Q01DX009 (ip), vehicle: Klucel (hydroxypropylcellulose) (HPC)
[9] = dose: 200.0 mg/kg/injection, schedule: Q01DX009 (ip), vehicle: Klucel (hydroxypropylcellulose) (HPC)
[10] = dose: 400.0 mg/kg/injection, schedule: Q01DX009 (ip), vehicle: Klucel (hydroxypropylcellulose) (HPC)
[11] = dose: 100.0 mg/kg/injection, schedule: Q01DX009 (ip), vehicle: saline with Tween-80
[12] = dose: 200.0 mg/kg/injection, schedule: Q01DX009 (ip), vehicle: saline with Tween-80
[13] = dose: 100.0 mg/kg/injection, schedule: Q04DX003 (ip), vehicle: saline with Tween-80
[14] = dose: 200.0 mg/kg/injection, schedule: Q04DX003 (ip), vehicle: saline with Tween-80
[15] = dose: 400.0 mg/kg/injection, schedule: Q01DX009 (ip), vehicle: saline with Tween-80
[16] = dose: 400.0 mg/kg/injection, schedule: Q04DX003 (ip), vehicle: saline with Tween-80
[17] = dose: 50.0 mg/kg/injection, schedule: Q04DX003 (ip), vehicle: saline with Tween-80

Measured: T/C

CC1CCC2(C(=O)O)CCC3(C)C(=CCC4C5(C)CC(O)C(O)C(C)(C(=O)O)C5CCC43C)C2C1(C)O (stereo not given)
inactive: [1] 104 % of control | [2] 100 % of control

OCCNCCNCC[OH2+].OCCNCCNCC[OH2+].[Cu+2].[O-][Cl+3]([O-])([O-])[O-]
inactive: dose: 12.5 mg/kg/injection, schedule: Q01DX009 (ip), vehicle: other 99 % of control | dose: 25.0 mg/kg/injection, schedule: Q01DX009 (ip), vehicle: other 115 % of control | dose: 50.0 mg/kg/injection, schedule: Q01DX009 (ip), vehicle: other 109 % of control

Clc1ccc(CNc2ncnc3[nH]ncc23)cc1
inactive: dose: 3.13 mg/kg/injection, schedule: Q01DX009 (ip), vehicle: saline with Tween-80 91 % of control | dose: 6.25 mg/kg/injection, schedule: Q01DX009 (ip), vehicle: saline with Tween-80 87 % of control | [3] 89 % of control | [4] 105 % of control

OCCN1CCN(CC/C=C2\c3ccccc3COc3ccc(Cl)cc32)CC1
inactive: [5] 107 % of control | [6] 109 % of control

CC(=O)Oc1cc2c[n+](C)c3c4cc(OC(C)=O)c(OC(C)=O)cc4ccc3c2cc1OC(C)=O
inactive: dose: 20.0 mg/kg/injection, schedule: Q01DX009 (ip), vehicle: saline 95 % of control | dose: 40.0 mg/kg/injection, schedule: Q01DX009 (ip), vehicle: saline 104 % of control | dose: 80.0 mg/kg/injection, schedule: Q01DX009 (ip), vehicle: saline 109 % of control | dose: 120.0 mg/kg/injection, schedule: Q01DX009 (ip), vehicle: saline 118 % of control

CNC(CNC(CO)CC(C)C)Cc1ccc(OCc2ccccc2)cc1 (stereo not given)
inactive: dose: 12.5 mg/kg/injection, schedule: Q01DX009 (ip), vehicle: saline 104 % of control | dose: 25.0 mg/kg/injection, schedule: Q01DX009 (ip), vehicle: saline 100 % of control

c1ccc2c(c1)nnn1c3ncccc3nc21
inactive: [7] 115 % of control

O=C1OC(c2ccccc2)=N/C1=C/c1cccs1
inactive: [8] 96 % of control | [9] 88 % of control | [10] 92 % of control

CCCCCC(=O)c1ccc(OCCCN2CCN(C(=O)OCC)CC2)cc1
inactive: [11] 105 % of control | [12] 104 % of control

CC1CCOS(=O)O1 (stereo not given)
inactive: dose: 10.0 mg/kg/injection, schedule: Q01DX010 (ip), vehicle: saline 100 % of control | dose: 20.0 mg/kg/injection, schedule: Q01DX010 (ip), vehicle: saline 95 % of control and 104 % of control | dose: 40.0 mg/kg/injection, schedule: Q01DX010 (ip), vehicle: saline 100 % of control and 104 % of control

Cc1ccc(Sc2ccccc2C(C)(C)O)cc1
inactive: [7] 101 % of control | [11] 101 % of control | [12] 95 % of control

CCOC(=O)c1c(N)sc2c1CCN(Cc1ccccc1)C2
inactive: [11] 104 % of control | [13] 100 % of control | [12] 95 % of control | [14] 104 % of control | [15] 119 % of control | [16] 109 % of control

CC1(C)c2ccccc2C(C)(O)c2ccccc21
inactive: [11] 100 % of control | [13] 100 % of control | [12] 100 % of control | [14] 96 % of control | [15] 112 % of control | [16] 96 % of control

c1ccc2c(c1)cc1c3nncn3ncn21
inactive: [7] 90 % of control | [11] 114 % of control

Cc1cc(C)c(N)c(Br)c1C
inactive: [11] 100 % of control | [12] 87 % of control

Cc1ccc(S(=O)(=O)NC(=O)C2C(=O)CC3(CCCCC3)CC2=O)cc1
inactive: dose: 50.0 mg/kg/injection, schedule: Q01DX009 (ip), vehicle: Klucel (hydroxypropylcellulose) (HPC) 109 % of control | [8] 118 % of control

CCCCCCC(C)[N+](C)(C)C (stereo not given)
inactive: [5] 116 % of control | dose: 12.5 mg/kg/injection, schedule: Q04DX003 (ip), vehicle: saline 100 % of control | [6] 113 % of control

CC(=O)O[C@@H]1c2c(c3c(=O)c4cccc(O)c4c(=O)c=3c2=[N+]=[N-])[C@H](OC(C)=O)[C@@H](OC(C)=O)[C@]1(C)O
inactive: dose: 3.0 mg/kg/injection, schedule: Q01DX009 (ip), vehicle: Klucel (hydroxypropylcellulose) (HPC) 118 % of control | dose: 6.0 mg/kg/injection, schedule: Q01DX009 (ip), vehicle: Klucel (hydroxypropylcellulose) (HPC) 105 % of control

CC1C=NNC1=O (stereo not given)
inactive: [1] 95 % of control and 118 % of control | dose: 175.0 mg/kg/injection, schedule: Q01DX001 (ip), vehicle: saline with Tween-80 100 % of control | dose: 176.0 mg/kg/injection, schedule: Q01DX009 (ip), vehicle: Klucel (hydroxypropylcellulose) (HPC) 120 % of control | [2] 104 % of control | dose: 265.0 mg/kg/injection, schedule: Q01DX001 (ip), vehicle: saline with Tween-80 100 % of control | dose: 400.0 mg/kg/injection, schedule: Q01DX001 (ip), vehicle: saline with Tween-80 100 % of control | dose: 600.0 mg/kg/injection, schedule: Q01DX001 (ip), vehicle: saline with Tween-80 109 % of control

COC(=O)/C=C1\C(C(=O)OC)=Cc2ccccc2N1C
inactive: [3] 100 % of control | [4] 100 % of control | dose: 25.0 mg/kg/injection, schedule: Q04DX003 (ip), vehicle: saline with Tween-80 104 % of control | [7] 105 % of control | [17] 100 % of control | [11] 91 % of control | [13] 87 % of control and 90 % of control | [14] 87 % of control

CCCCC(C#N)(C(=O)OCC)C(C)(C)C (stereo not given)
inactive: dose: 100.0 mg/kg/injection, schedule: Q01DX009 (ip), vehicle: saline 109 % of control | dose: 200.0 mg/kg/injection, schedule: Q01DX009 (ip), vehicle: saline 118 % of control | dose: 400.0 mg/kg/injection, schedule: Q01DX009 (ip), vehicle: saline 90 % of control

CC(=O)Nc1ccc(/C=C\c2ccnc3ccccc23)cc1
inactive: dose: 33.3 mg/kg/injection, schedule: Q04DX002 (ip), vehicle: saline with Tween-80 111 % of control | dose: 50.0 mg/kg/injection, schedule: Q04DX002 (ip), vehicle: saline with Tween-80 107 % of control | dose: 75.0 mg/kg/injection, schedule: Q04DX002 (ip), vehicle: saline with Tween-80 112 % of control

C(=N\Nc1nc2ccccc2s1)/c1ccccc1
inactive: [8] 95 % of control | [9] 109 % of control | [10] 90 % of control

NC(=S)S/C=C/C(=O)O
inactive: [7] 96 % of control | [17] 100 % of control | [11] 94 % of control | [13] 107 % of control | [12] 100 % of control | [14] 103 % of control | [16] 115 % of control

CCOC(=O)C(C)C(=O)Cc1cc(OC)c(C)cc1Br (stereo not given)
inactive: dose: 50.0 mg/kg/injection, schedule: Q04DX003 (ip), vehicle: Klucel (hydroxypropylcellulose) (HPC) 100 % of control | [8] 110 % of control | dose: 100.0 mg/kg/injection, schedule: Q04DX003 (ip), vehicle: Klucel (hydroxypropylcellulose) (HPC) 91 % of control | [9] 105 % of control | dose: 200.0 mg/kg/injection, schedule: Q04DX003 (ip), vehicle: Klucel (hydroxypropylcellulose) (HPC) 95 % of control | [10] 100 % of control | dose: 400.0 mg/kg/injection, schedule: Q04DX003 (ip), vehicle: Klucel (hydroxypropylcellulose) (HPC) 95 % of control
